These molecules were tested on human breast cancer cell BT-474 (assay: Inhibitory action on breast cancer cell BT-474 proliferation in vitro). Details: 120 h, BT-474 cells, cultured for 5 days with compound, SRB dye protein content.
Type: cell-based
Description: A suspension of human breast cancer cell BT-474 (100 μl (6,000 cells)) were plated in a 96-well microplate and cultured in an incubator (37° C., 5% carbon dioxide). On the following day, 100 μl of a solution of each test compound previously diluted serially in 2-fold, was added, and the cells were cultured for 5 days. After the culture medium containing the test compound was removed, the cells were washed and fixed with 50% trichloroacetic acid, after which a 0.4% (w/v) SRB dye solution (dissolved in 1% acetic acid) was added to stain as well as fix the cell protein (Skehan et al., Journal of the National Cancer Institute, Vol. 82, pp. 1107-1112, 1990). After washing with a 1% acetic acid solution, 100 μl of extract solution (10 mM, Tris buffer) was added to extract the dye and the absorbance was measured at a wavelength of 550 nm to quantify the amount of cells as protein content.

Row | Structure (SMILES) | IC50
1 | OCCn1ccc2ncnc(Nc3ccc(Oc4cccc5sncc45)c(Cl)c3)c21 [Example 3, 2-(4-{[4-(1,2-benzoisothiazol-4-yloxy)-3-chlorophenyl]amino}-5H-pyrrolo[3,2-d]pyrimidin-5-yl)ethanol] | < 100 nM
2 | CC(=O)NCCn1ccc2ncnc(Nc3ccc(Oc4cccc5sncc45)c(Cl)c3)c21 [Example 7, N-[2-(4-{[4-(1,2-benzoisothiazol-4-yloxy)-3-chlorophenyl]amino}-5H-pyrrolo[3,2-d]pyrimidin-5-yl)ethyl]acetamide methanesulfonate] | < 100 nM
3 | CC(C)(CO)C(=O)NCCn1ccc2ncnc(Nc3ccc(Oc4cccc5sncc45)c(F)c3)c21 [Example 11, N-[2-(4-{[4-(1,2-benzoisothiazol-4-yloxy)-3-fluorophenyl]amino}-5H-pyrrolo[3,2-d]pyrimidin-5-yl)ethyl]-3-hydroxy-2,2-dimethylpropanamide] | < 100 nM
4 | Cc1cc(Nc2ncnc3ccn(CCNC(=O)C(C)(C)CO)c23)ccc1Oc1cccc2sncc12 [Example 39, N-[2-(4-{[4-(1,2-benzoisothiazol-4-yloxy)-3-methylphenyl]amino}-5H-pyrrolo[3,2-d]pyrimidin-5-yl)ethyl]-3-hydroxy-2,2-dimethylpropanamide] | < 100 nM
5 | CC(C)(N)C(=O)NCCn1ccc2ncnc(Nc3ccc(Oc4cccc5sncc45)c(Cl)c3)c21 [Example 53, N-[2-(4-{[4-(1,2-benzoisothiazol-4-yloxy)-3-chlorophenyl]amino}-5H-pyrrolo[3,2-d]pyrimidin-5-yl)ethyl]-2-methylalaninamide dimethanesulfonate] | < 100 nM
6 | CC(C)NC(=O)NCCn1ccc2ncnc(Nc3ccc(Oc4cccc5sncc45)c(Cl)c3)c21 [Example 54, 1-[2-(4-{[4-(1,2-benzoisothiazol-4-yloxy)-3-chlorophenyl]amino}-5H-pyrrolo[3,2-d]pyrimidin-5-yl)ethyl]-3-(1-methylethyl)urea methanesulfonate] | < 100 nM
